Target: T1, cytochrome P450 2D6 (Homo sapiens, UniProt P10635)
T1 construct: were incubated with human liver microsomes (0.25 mg/mL protein and 0.075 μM P450); from tissue; host or cells: human liver microsomes
Assay: inhibition of cytochrome P450 2D6 in human liver microsomes (dextromethorphan to dextrorphan)
Type: biochemical
Conditions: human liver microsomes 0.25 mg/mL protein, 8 μM dextromethorphan, 1 mM NADPH, 37° C., 20 min; average IC50 with number of tests in parentheses
Procedure: Following the 20 min incubation, the reaction was quenched by addition of 200 μL acetonitrile containing 0.1 μM buspirone as an internal standard. The samples were then vortex mixed and centrifuged to pellet the protein. The supernantant was transferred, dried under nitrogen flow and reconstituted in mobile phase. A 10 uL aliquot was injected onto a gradient reversed phase HPLC system with a Phenomenex Luna C18 (50×4.6 mm) column. Dextrorphan, formed by the metabolism of dextromethorphan by CYP 2D6, was monitored using tandem MS/MS in the APCl mode with the MRM transition of m/z 258.3>156.6. Remaining-CYP2D6 activity (%) was determined for the samples relative to a vehicle control. The data were analyzed by non-linear regression according to % R=% Rmax[formula](1−(C/(C+IC50))) using WinNonLin (version 4.0.1), where % R is the % remaining CYP 2D6 activity relative to the vehicle control, C is the concentration of the compound of interest, and IC50 is the inhibitory concentration of the compound of interest giving 50% inhibition of maximal % remaining activity. The data are reported as IC50s (μM). If more than one assay was performed for a particular compound, the average IC50 is reported with the number of tests in parentheses.

T1 sequence (P10635 whole entry): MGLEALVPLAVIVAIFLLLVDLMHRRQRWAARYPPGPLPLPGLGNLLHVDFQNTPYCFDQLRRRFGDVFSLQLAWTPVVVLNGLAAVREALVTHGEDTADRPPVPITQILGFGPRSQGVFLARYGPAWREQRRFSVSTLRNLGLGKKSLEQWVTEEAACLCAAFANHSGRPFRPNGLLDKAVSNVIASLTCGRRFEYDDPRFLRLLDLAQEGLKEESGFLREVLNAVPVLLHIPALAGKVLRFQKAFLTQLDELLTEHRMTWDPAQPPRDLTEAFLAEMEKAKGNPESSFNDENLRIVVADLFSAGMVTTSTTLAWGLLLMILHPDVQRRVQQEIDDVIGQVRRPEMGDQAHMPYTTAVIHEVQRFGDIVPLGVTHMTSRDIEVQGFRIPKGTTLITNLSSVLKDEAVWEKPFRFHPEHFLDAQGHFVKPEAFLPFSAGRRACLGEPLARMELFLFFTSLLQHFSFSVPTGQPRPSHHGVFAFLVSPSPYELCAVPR

| Compound | IC50 [µM] |
| --- | --- |
| Cc1nc[nH]c1CC1=C(O)CC(CCc2ccc(C(C)(C)C#N)c(F)c2)(C2CCCC2)OC1=O (stereo not shown) [Compound 15, 2-[4-(2-{2-cyclopentyl-4-hydroxy-5-[(4-methyl-1H-imidazol-5-yl)methyl]-6-oxo-3,6-dihydro-2H-pyran-2-yl}ethyl)-2-fluorophenyl]-2-methylpropanenitrile] | 0.72 |
| Cc1cc(C)n2nc(CC3=C(O)CC(COc4ccc(C(C)(C)C#N)c(F)c4)(C4CCCC4)OC3=O)nc2n1 (stereo not shown) [Compound 16, 2-[4-({2-cyclopentyl-5-[(5,7-dimethyl[1,2,4]triazolo[1,5-a]pyrimidin-2-yl)methyl]-4-hydroxy-6-oxo-3,6-dihydro-2H-pyran-2-yl}methoxy)-2-fluorophenyl]-2-methylpropanenitrile] | 0.2 |
| CC(C)(C#N)c1c(F)cc(CCC2(C3CCCC3)CC(O)=C(Cc3nc4ncccn4n3)C(=O)O2)cc1F (stereo not shown) [Compound 20, 2-(4-{2-[2-cyclopentyl-4-hydroxy-6-oxo-5-([1,2,4]triazolo[1,5-a]pyrimidin-2-ylmethyl)-3,6-dihydro-2H-pyran-2-yl]ethyl}-2,6-difluorophenyl)-2-methylpropanenitrile] | < 0.074 |
| CC(C)(C#N)c1ccc(CCC2(C3CCCC3)CC(O)=C(Cc3cn4ccccc4n3)C(=O)O2)cc1F (stereo not shown) [Compound 21, 2-(4-{2-[2-cyclopentyl-4-hydroxy-5-(imidazo[1,2-a]pyridin-2-ylmethyl)-6-oxo-3,6-dihydro-2H-pyran-2-yl]ethyl}-2-fluorophenyl)-2-methylpropanenitrile] | 0.89 |
| CCc1cnc2nc(CC3=C(O)CC(CCc4cc(F)c(C(C)(C)C#N)c(F)c4)(C4CCCC4)OC3=O)nn2c1 (stereo not shown) [Compound 28, 2-[4-(2-{2-cyclopentyl-5-[(6-ethyl[1,2,4]triazolo[1,5-a]pyrimidin-2-yl)methyl]-4-hydroxy-6-oxo-3,6-dihydro-2H-pyran-2-yl}ethyl)-2,6-difluorophenyl]-2-methylpropanenitrile] | 0.13 |
| Cc1cnc2nc(CC3=C(O)CC(CCc4ccc(C5(C#N)CCC5)c(F)c4)(C4CCCC4)OC3=O)nn2c1 (stereo not shown) [Compound 29, 1-[4-(2-{2-cyclopentyl-4-hydroxy-5-[(6-methyl[1,2,4]triazolo[1,5-a]pyrimidin-2-yl)methyl]-6-oxo-3,6-dihydro-2H-pyran-2-yl}ethyl)-2-fluorophenyl]cyclobutanecarbonitrile] | 1.4 |
| Cc1cnc2nc(CC3=C(O)CC(CCc4cc(F)c(C5(C#N)CC5)c(F)c4)(C4CCCC4)OC3=O)nn2c1 (stereo not shown) [Compound 30, 1-[4-(2-{2-cyclopentyl-4-hydroxy-5-[(6-methyl[1,2,4]triazolo[1,5-a]pyrimidin-2-yl)methyl]-6-oxo-3,6-dihydro-2H-pyran-2-yl}ethyl)-2,6-difluorophenyl]cyclopropanecarbonitrile] | 0.19 |

Other lines, results leading:

| IC50 [µM] | Compound |
| --- | --- |
| < 0.074 | Cc1cnc2nc(CC3=C(O)CC(CCc4cc(F)c(C(C)(C)C#N)c(F)c4)(C4CCCC4)OC3=O)nn2c1 (stereo not shown) [Compound 13, 2-[4-(2-{2-cyclopentyl-4-hydroxy-5-[(6-methyl[1,2,4]triazolo[1,5-a]pyriimidin-2-yl)methyl]-6-oxo-3,6-dihydro-2H-pyran-2-yl}ethyl)-2,6-difluorophenyl]-2-methylpropanenitrile] |
| 0.27 | N#CC1(c2ccc(CCC3(C4CCCC4)CC(O)=C(Cc4nc5ncc(Cl)cn5n4)C(=O)O3)cc2F)CC1 (stereo not shown) [Compound 14, 1-[4-(2-{5-[(6-chloro[1,2,4]triazolo[1,5-a]pyrimidin-2-yl)methyl]-2-cyclopentyl-4-hydroxy-6-oxo-3,6-dihydro-2H-pyran-2-yl}ethyl)-2-fluorophenyl]cyclopropanecarbonitrile] |
| < 0.074 | Cc1cnc2nc(CC3=C(O)CC(COc4ccc(C(C)(C)C#N)c(F)c4)(C4CCCC4)OC3=O)nn2c1 (stereo not shown) [Compound 17, 2-[4-({2-cyclopentyl-4-hydroxy-5-[(6-methyl[1,2,4]triazolo[1,5-a]pyrimidin-2-yl)methyl]-6-oxo-3,6-dihydro-2H-pyran-2-yl}methoxy)-2-fluorophenyl]-2-methylpropanenitrile] |
| 0.16 | CC(C)(C#N)c1ccc(CCC2(C3CCCC3)CC(O)=C(Cc3nc4ncc(Cl)cn4n3)C(=O)O2)cc1F (stereo not shown) [Compound 19] |
| 0.6 | CC(C)(O)c1ccc(CCC2(C3CCCC3)CC(O)=C(Cc3nc4ncc(Cl)cn4n3)C(=O)O2)cc1F (stereo not shown) [Compound 22, 3-[(6-chloro[1,2,4]triazolo[1,5-a]pyrimidin-2-yl)methyl]-6-cyclopentyl-6-{2-[3-fluoro-4-(1-hydroxy-1-methylethyl)phenyl]ethyl}-4-hydroxy-5,6-dihydro-2H-pyran-2-one] |
| < 0.074 | COc1cc(C(C)(C)C#N)c(F)cc1CCC1(C2CCCC2)CC(O)=C(Cc2nc3ncc(C)cn3n2)C(=O)O1 (stereo not shown) [Compound 33, 2-[4-(2-{2-cyclopentyl-4-hydroxy-5-[(6-methyl[1,2,4]triazolo[1,5-a]pyrimidin-2-yl)methyl]-6-oxo-3,6-dihydro-2H-pyran-2-yl}ethyl)-2-fluoro-5-methoxyphenyl]-2-methylpropanenitrile] |
